# Test results taken from patent US10568923B2, “Plant parts and extracts having anticoccidial activity” (priority 2012, dated 2020).
# “Also recorded” adds a separate entry of the source.
# Key:
# [1] = system: mixed culture of oocysts of the species E. tenella, E. acervulina and E. maxima; assay: In vivo challenge trial in broiler birds with mixed infection of coccidiosis (Examples 3, 10, 13); details: Example 10, 11, 22 and 55 ppm
# [2] = system: sporozoites of Eimeria tenella; assay: In vitro anti-sporozoite activity by MTT reduction assay; format: cell-based; details: peaks separated by semi-preparative HPLC; compared to crude powder in equivalent concentrations
# Procedure: Further, an in vitro method based on 3-(4,5-Dimethyl-2-thiazolyl)-2,5-diphenyl-2H-tetrazolium bromide (MTT) reduction assay was developed to evaluate the anti-sporozoite activity of plant extracts as a measure of the viability of the sporozoites. The optimized method included the preparation, sterilization and purification of sporozoites, followed by incubation of sporozoite suspension (minimum of 10^5 cells/ml) with required concentration of plant extract. The plant samples were prepared by mixing crude powder into a known volume of distilled water to achieve the specific ppm, vortexed for 2 min and filtered through a 0.2μ syringe filter. Following 24 h of incubation with the plant extracts, the sporozoites were thoroughly washed and then MTT assay was performed. MTT-PMS solution (0.2 millimolar each) is incubated with the sporozoite suspension (at 1:10 ratio) for 2 h at 41° C. […] The purple dye formazan is dissolved in 200 ul DMSO and the absorbance is measured at 530 nm against a reference wavelength of 630 nm.
# Q. infectoria gall nut crude powder was fractionated using different solvent by column chromatography. The sample from each of the fractions was evaluated for their anti-sporozoite activity.
# These four compounds were separated by semi-preparative HPLC and anti-sporozoite activity was evaluated in comparison to the crude powder in equivalent concentrations.
# [3] = system: E. maxima (isolate ID NKL/11/Ac1); assay: Example 14: in vivo anticoccidial trial in Cobb 400 broilers challenged with E. maxima; set-up: species or system Eimeria maxima; details: day 6 post challenge
# Source text: The trial was designed with 11 treatment groups with 2 replicates per groups and 12 male birds per replicate. The groups included (1) uninfected control, (2) infected control, (3) positive control groups supplemented with Salinomycin (Coxistac) at the recommended dosage, (4) treatment group treated with 20 and 50 g/ton of pure THB, (5) encapsulated THB at 46.3, 92.6 and 185.2 g/ton of feed, and (6) microemulsion of THB at 138.9, 277.8 and 416.7 g/ton of feed. […] The parameters evaluated were lesion scoring on day 6 post challenge and oocysts shedding on day 7 post-challenge.
# The trial was conducted at the R & D poultry farm facility of Kemin Animal Nutrition and Health (India), Gummidipundi. Straight run commercial hybrid broiler chickens, Gallus domesticus (Var. Vencobb 400) were used for the study. Day old male chicks were procured from Shanthi hatcheries, Coimbatore, India. Birds were weighed and examined for general health at receipt. The birds were individually identified by wing bands. The chicks were housed in mild steel cages which were cleaned, disinfected using Virkon S (Du Pont, India) and painted earlier. The birds were provided with ad libitum feed and water. No water sanitizers or antimicrobial compounds were used in the water or in the feed. The experimental design is detailed in Table 13. As this was a preliminary study to evaluate the effect of encapsulated and microemulsion of THB in controlling coccidiosis only 2 replicates were maintained.
# The birds were fed with either feed containing no anticoccidial agent, THB, encapsulated THB, microemulsion of THB or Salinomycin (Coxistac, Pfizer, India) incorporated in the feed from day 1. THB was obtained from J P N Pharma, Mumbai, India
# The oocysts of E. maxima (isolate ID NKL/11/Ac1) that were maintained at the Department of Veterinary Parasitology, Madras Veterinary College, Chennai were used for the induction of coccidiosis in the trial birds. The origin of the isolate was a broiler bird with clinical coccidiosis, and they were propagated in vivo to yield oocyst quantities sufficient for the study. […]
# [4] = Example 15: compatibility with Tiamulin in commercial broilers (Ross 308), 42 days; format: in vivo, Gallus domesticus (Var. Ross 308); details: used in combination in feed of broilers
# Procedure: Experimental facility and study design. An in vivo trial was conducted at Ramadootha poultry farm, Hyderabad, India. Straight run commercial hybrid broiler chickens, Gallus domesticus (Var. Ross 308) were used for the study. Day old male chicks were procured from Suguna Broilers, India. The birds were weighed individually, wing banded, and randomly segregated into groups. The experimental design is detailed in Table 18.
# Details of treatment groups. The treated birds were fed with supplements incorporated in the feed from day 1 (Table 22).
# Parameters analyzed. The parameters that were chosen for analyses were body weight, feed conversion ratio (FCR) on a weekly basis, mortality and leg weakness on daily basis.
# Mean body weight. Birds from each of the groups were removed and weighed individually every week to calculate the weight gain. The cumulative average weight gain of the 8 replicates of each of the group was taken as the mean weight/week.
# Feed Conversion ratio (FCR). The total feed consumption was monitored regularly and FCR was arrived at by dividing the feed consumed per bird by the final weight per bird.
# Mortality. Mortality was recorded on daily basis and the total mortality was calculated and expressed as %. […]
# Leg weakness. All birds were examined every day for the major clinical signs, leg weakness which was scored on a 0 to 4 scale. […]
# [5] = system: E. tenella (Houghton strain); assay: Example 1 screening trial: Q. infectoria in controlling caecal coccidiosis in broiler chickens; format: in vivo, Eimeria tenella; details: day 7 post infection; average of three replicates; Q. infectoria 100 g/ton feed, Coxistac 1000 g/ton
# Procedure: The screening trial was conducted at a poultry farm facility located in Gummidipundi, India. Straight run commercial hybrid broiler chickens, Gallus domesticus (Var. Vencobb 400) were used for the study. Day old male chicks were procured, weighed individually, wing banded, and randomly segregated into groups. The experimental design is detailed in Table 1.
# The treated birds were fed with plant extract incorporated in the feed from day 1 (Table 2). The crude powders of Q. infectoria gall nut were procured from Pooja herbs, Mumbai, India. […]
# The excreta of the birds were monitored daily from the day 1 post infection to day 10 for their consistency, presence of blood, mucus, undigested feed, and orange color. […]
# The mortality of the birds was recorded on a daily basis and post mortem was carried out to confirm the cause of death.
# On day 5 and 7 post infection, 2 birds from each of the groups were sacrificed by cervical dislocation and the intestine was cut open. The caeca of the birds were scored for coccidiosis lesions. […]
# Triplicate samples of the excreta of the birds were collected randomly from the tray kept below the cages and the oocyst per gram was evaluated.
SMILES,"Dose response (lesion score, OPG) [1]","Lesion score for E. tenella, E. maxima and E. acervulina ([1]; day 5 post infection, vs infected control and Salinomycin)",Anti-sporozoite activity of the four major HPLC peaks (MTT) [2],Lesion score (mid-gut) ([3]; pure THB at 25 and 50 ppm),"Lesion score (mid-gut) ([3]; pure THB at 25 and 50 ppm, listed as THB)",Compatibility with Tiamulin [4],Average Oocysts Per Gram Excreta [5],"Lesion score (mid-gut) ([3]; Coxistac at 500 g/ton of feed, vs infected control)"
"O=C(O)c1cc(O)c(O)c(O)c1 (single isomer, unassigned) [gallic acid, 3,4,5-trihydroxybenzoic acid]",Dose dependent response was observed with no significant difference between gallic acid at 22 and 55 ppm,significant reduction in the score for all the three tested species,best anti-sporozoite activity,comparable efficacy,significant improvement in lesions scores when compared to the positive control,,,
"CC[C@@H](C(=O)[C@@H](C)[C@@H](O)[C@H](C)[C@@H]1O[C@@H]([C@@H](CC)C(=O)O)CC[C@@H]1C)[C@H]1O[C@]2(C=C[C@@H](O)[C@]3(CC[C@@](C)([C@H]4CC[C@](O)(CC)[C@H](C)O4)O3)O2)[C@H](C)C[C@@H]1C [Salinomycin, reference compound]",,,,,,indicates interaction,did not show any indication of reduction of oocysts,no significant reduction; also recorded: showed a reduction in lesion scores
